Laboratory results as given in PubChem BioAssay AID1745844 (Carcinogenic Potency Database (CPDB), 2022).
Values joined by “and” are separate entries in the source; they are usually repeats but may differ in a detail not shown here. Equal values may be shown once. Active and inactive are the calls of the source. The rule behind the calls is not given here.

Tested on: rodent lifetime carcinogenesis bioassay, tumor incidence TD50
Test: chronic cancer bioassays in animals – CPDB, compiled studies (AID 1745844)

With `COc1ccc(OC)c(/C=C/c2ccc(N)cc2)c1` the TD50 (mouse, strain CD-1 HaM/ICR, females, in feed, site: any site (literature study), lesion: several types, types named in the paper, dosed 77 weeks, study length 90 weeks) was 118 mg/kg/day (inactive), the carcinogen call (mouse, strain CD-1 HaM/ICR, females, in feed, site: liver, lesion: several types, types named in the paper, dosed 77 weeks, study length 90 weeks) was “negative (inactive)” and the TD50 (mouse, strain CD-1 HaM/ICR, females, in feed, site: lung, lesion: several types, types named in the paper, dosed 77 weeks, study length 90 weeks) was 152 mg/kg/day (inactive). For the same compound, the TD50 (mouse, strain CD-1 HaM/ICR, males, in feed, site: any site (literature study), lesion: several types, types named in the paper, dosed 77 weeks, study length 90 weeks) was 126 mg/kg/day, the TD50 (mouse, strain CD-1 HaM/ICR, males, in feed, site: liver, lesion: hepatoma, dosed 77 weeks, study length 90 weeks) was 376 mg/kg/day and the TD50 (mouse, strain CD-1 HaM/ICR, males, in feed, site: liver, lesion: several types, types named in the paper, dosed 77 weeks, study length 90 weeks) was 329 mg/kg/day. For the same compound, the TD50 (mouse, strain CD-1 HaM/ICR, males, in feed, site: lung, lesion: several types, types named in the paper, dosed 77 weeks, study length 90 weeks) was 95.9 mg/kg/day and 115 mg/kg/day, the TD50 (rat, strain Charles River CD (Sprague-Dawley), males, in feed, site: any site (literature study), lesion: several types, types named in the paper, dosed 47 weeks, study length 51 weeks) was 0.269 mg/kg/day and the TD50 (rat, strain Charles River CD (Sprague-Dawley), males, in feed, site: ear, lesion: several types, types named in the paper, dosed 47 weeks, study length 51 weeks) was 1.45 mg/kg/day and 1.54 mg/kg/day. It also gave a TD50 (rat, strain Charles River CD (Sprague-Dawley), males, in feed, site: liver, lesion: several types, types named in the paper, dosed 47 weeks, study length 51 weeks) of 2.61 mg/kg/day, a TD50 (rat, strain Charles River CD (Sprague-Dawley), males, in feed, site: skin, lesion: several types, types named in the paper, dosed 47 weeks, study length 51 weeks) of 1.48 mg/kg/day and a TD50 (rat, strain Charles River CD (Sprague-Dawley), males, in feed, site: small intestine, lesion: several types, types named in the paper, dosed 47 weeks, study length 51 weeks) of 0.866 mg/kg/day. It also gave a TD50 (rat, strain Charles River CD (Sprague-Dawley), males, in feed, site: stomach, lesion: several types, types named in the paper, dosed 47 weeks, study length 51 weeks) of 0.721 mg/kg/day.
`CCCCCCN(N=O)C(N)=O` was tested, and the TD50 (rat, strain Fischer 344, females, by gavage, site: forestomach, lesion: one or several types, types not named, dosed 50 weeks, study length 104 weeks) was 0.848 mg/kg/day, the TD50 (rat, strain Fischer 344, females, by gavage, site: lung, lesion: several types, types named in the paper, dosed 50 weeks, study length 104 weeks) was 2.06 mg/kg/day and the TD50 (rat, strain Fischer 344, females, by gavage, site: mammary gland, lesion: adenocarcinoma, dosed 50 weeks, study length 104 weeks) was 1.73 mg/kg/day. For the same compound, the TD50 (rat, strain Fischer 344, females, by gavage, site: uterus, lesion: several types, types named in the paper, dosed 50 weeks, study length 104 weeks) was 0.579 mg/kg/day, the TD50 (rat, strain Fischer 344, males, by gavage, site: all sites, lesion: mesothelioma, dosed 50 weeks, study length 104 weeks) was 0.745 mg/kg/day and the TD50 (rat, strain Fischer 344, males, by gavage, site: colon, lesion: one or several types, types not named, dosed 50 weeks, study length 104 weeks) was 2.27 mg/kg/day. The carcinogen call (rat, strain Fischer 344, males, by gavage, site: forestomach, lesion: one or several types, types not named, dosed 50 weeks, study length 104 weeks) was “positive” and the carcinogen call (rat, strain Fischer 344, males, by gavage, site: lung, lesion: several types, types named in the paper, dosed 50 weeks, study length 104 weeks) was “positive”.
Compound `COc1ccc(N)cc1N` has a TD50 (mouse, strain B6C3F1, females, in feed, site: all sites, lesion: lymphoma, dosed 78 weeks, study length 96 weeks) of 262 mg/kg/day, a TD50 (mouse, strain B6C3F1, females, in feed, site: any site (literature study), lesion: several types, types named in the paper, dosed 78 weeks, study length 96 weeks) of 311 mg/kg/day and a TD50 (mouse, strain B6C3F1, females, in feed, site: liver, lesion: hepatocellular adenoma + hepatocellular carcinoma + neoplastic nodule, dosed 78 weeks, study length 96 weeks) of 7350 mg/kg/day. For the same compound, the TD50 (mouse, strain B6C3F1, females, in feed, site: lung, lesion: alveolar/bronchiolar adenoma + alveolar/bronchiolar carcinoma, dosed 78 weeks, study length 96 weeks) was 10900 mg/kg/day, the TD50 (mouse, strain B6C3F1, females, in feed, site: thyroid gland, lesion: follicular-cell adenoma + follicular-cell carcinoma, dosed 78 weeks, study length 96 weeks) was 1060 mg/kg/day and the TD50 (mouse, strain B6C3F1, females, in feed, site: thyroid gland, lesion: follicular-cell adenoma, dosed 78 weeks, study length 96 weeks) was 1450 mg/kg/day. It also gave a TD50 (mouse, strain B6C3F1, males, in feed, site: any site (literature study), lesion: several types, types named in the paper, dosed 78 weeks, study length 96 weeks) of 354 mg/kg/day, a TD50 (mouse, strain B6C3F1, males, in feed, site: liver, lesion: hepatocellular adenoma + hepatocellular carcinoma + neoplastic nodule, dosed 78 weeks, study length 96 weeks) of 926 mg/kg/day and a TD50 (mouse, strain B6C3F1, males, in feed, site: lung, lesion: alveolar/bronchiolar adenoma + alveolar/bronchiolar carcinoma, dosed 78 weeks, study length 96 weeks) of 2560 mg/kg/day. For the same compound, the TD50 (mouse, strain B6C3F1, males, in feed, site: thyroid gland, lesion: follicular-cell adenoma, dosed 78 weeks, study length 96 weeks) was 791 mg/kg/day, the TD50 (rat, strain Fischer 344, females, in feed, site: Zymbal's gland, lesion: sebaceous adenocarcinoma, dosed 78 weeks, study length 107 weeks) was 665 mg/kg/day and the TD50 (rat, strain Fischer 344, females, in feed, site: any site (literature study), lesion: several types, types named in the paper, dosed 78 weeks, study length 107 weeks) was 181 mg/kg/day. The TD50 (rat, strain Fischer 344, females, in feed, site: any site (literature study), lesion: several types, types named in the paper, dosed 83 weeks, study length 86 weeks) was 67.3 mg/kg/day, the TD50 (rat, strain Fischer 344, females, in feed, site: clitoral gland + uterus, endometrium, lesion: carcinoma, NOS + adenocarcinoma, NOS + papillary carcinoma, dosed 78 weeks, study length 107 weeks) was 408 mg/kg/day and the TD50 (rat, strain Fischer 344, females, in feed, site: clitoral gland, lesion: adenoma, NOS + carcinoma, NOS + cystadenoma, NOS + squamous-cell carcinoma + squamous-cell papilloma, dosed 78 weeks, study length 107 weeks) was 416 mg/kg/day. For the same compound, the TD50 (rat, strain Fischer 344, females, in feed, site: clitoral gland, lesion: several types, types named in the paper, dosed 83 weeks, study length 86 weeks) was 113 mg/kg/day, the TD50 (rat, strain Fischer 344, females, in feed, site: clitoral gland, lesion: squamous-cell carcinoma, sebaceous, dosed 83 weeks, study length 86 weeks) was 162 mg/kg/day and the TD50 (rat, strain Fischer 344, females, in feed, site: liver, lesion: hepatocellular adenoma + hepatocellular carcinoma + neoplastic nodule, dosed 78 weeks, study length 107 weeks) was 14500 mg/kg/day. It also gave a TD50 (rat, strain Fischer 344, females, in feed, site: mammary gland, lesion: several types, types named in the paper, dosed 83 weeks, study length 86 weeks) of 1290 mg/kg/day, a TD50 (rat, strain Fischer 344, females, in feed, site: thyroid gland + Zymbal's gland, lesion: adenocarcinoma, NOS + follicular-cell carcinoma + papillary cystadenocarcinoma, NOS + sebaceous adenocarcinoma, dosed 78 weeks, study length 107 weeks) of 301 mg/kg/day and a TD50 (rat, strain Fischer 344, females, in feed, site: thyroid gland, lesion: adenocarcinoma, NOS + follicular-cell carcinoma + papillary cystadenocarcinoma, NOS, dosed 78 weeks, study length 107 weeks) of 425 mg/kg/day. It also gave a TD50 (rat, strain Fischer 344, females, in feed, site: thyroid gland, lesion: follicular-cell adenoma, dosed 83 weeks, study length 86 weeks) of 296 mg/kg/day, a TD50 (rat, strain Fischer 344, females, in feed, site: thyroid gland, lesion: several types, types named in the paper, dosed 83 weeks, study length 86 weeks) of 162 mg/kg/day and a TD50 (rat, strain Fischer 344, males, in feed, site: any site (literature study), lesion: several types, types named in the paper, dosed 78 weeks, study length 107 weeks) of 135 mg/kg/day. The TD50 (rat, strain Fischer 344, males, in feed, site: ear canal + ear + Zymbal's gland, lesion: sebaceous adenocarcinoma + squamous-cell carcinoma, dosed 78 weeks, study length 107 weeks) was 709 mg/kg/day, the TD50 (rat, strain Fischer 344, males, in feed, site: ear canal + ear + preputial gland + skin + thyroid gland + Zymbal's gland, lesion: sebaceous adenocarcinoma + squamous-cell carcinoma + adenoma, NOS + carcinoma, NOS + cystadenoma, NOS + papillary adenoma + basal-ce, dosed 78 weeks, study length 107 weeks) was 72.6 mg/kg/day and the TD50 (rat, strain Fischer 344, males, in feed, site: liver, lesion: hepatocellular adenoma + hepatocellular carcinoma + neoplastic nodule, dosed 78 weeks, study length 107 weeks) was 1610 mg/kg/day. For the same compound, the TD50 (rat, strain Fischer 344, males, in feed, site: preputial gland, lesion: adenoma, NOS + carcinoma, NOS + cystadenoma, NOS + papillary adenoma, dosed 78 weeks, study length 107 weeks) was 351 mg/kg/day, the TD50 (rat, strain Fischer 344, males, in feed, site: preputial gland, lesion: adenoma, NOS + cystadenoma, NOS + papillary adenoma, dosed 78 weeks, study length 107 weeks) was 530 mg/kg/day and the TD50 (rat, strain Fischer 344, males, in feed, site: skin, lesion: basal-cell carcinoma + sebaceous adenocarcinoma + squamous-cell carcinoma, dosed 78 weeks, study length 107 weeks) was 358 mg/kg/day. For the same compound, the TD50 (rat, strain Fischer 344, males, in feed, site: thyroid gland, lesion: adenocarcinoma, NOS + follicular-cell carcinoma + papillary adenocarcinoma + papillary cystadenocarcinoma, NOS, dosed 78 weeks, study length 107 weeks) was 192 mg/kg/day, the TD50 (rat, strain Fischer 344, males, in feed, site: thyroid gland, lesion: adenocarcinoma, NOS, dosed 78 weeks, study length 107 weeks) was 252 mg/kg/day and the TD50 (rat, strain Fischer 344, males, in feed, site: thyroid gland, lesion: c-cell adenoma + c-cell carcinoma, dosed 78 weeks, study length 107 weeks) was 319 mg/kg/day.
For `CCOC(=O)C(O)(c1ccc(Cl)cc1)c1ccc(Cl)cc1`, the TD50 (mouse, strain B6AKF1, females, oral dosing, site: any site (literature study), lesion: several types, types named in the paper, dosed 82 weeks, study length 82 weeks) was 621 mg/kg/day, the TD50 (mouse, strain B6AKF1, females, oral dosing, site: lung, lesion: adenoma, dosed 82 weeks, study length 82 weeks) was 621 mg/kg/day and the TD50 (mouse, strain B6AKF1, males, oral dosing, site: any site (literature study), lesion: several types, types named in the paper, dosed 82 weeks, study length 82 weeks) was 72.8 mg/kg/day. The TD50 (mouse, strain B6AKF1, males, oral dosing, site: liver, lesion: hepatoma, dosed 82 weeks, study length 82 weeks) was 69.8 mg/kg/day, the TD50 (mouse, strain B6C3F1, females, in feed, site: any site (literature study), lesion: several types, types named in the paper, dosed 78 weeks, study length 90 weeks) was 3930 mg/kg/day and the TD50 (mouse, strain B6C3F1, females, in feed, site: liver, lesion: hepatocellular adenoma + hepatocellular carcinoma + neoplastic nodule, dosed 78 weeks, study length 90 weeks) was 848 mg/kg/day. The TD50 (mouse, strain B6C3F1, females, in feed, site: liver, lesion: hepatocellular carcinoma, dosed 78 weeks, study length 90 weeks) was 848 mg/kg/day, the TD50 (mouse, strain B6C3F1, females, oral dosing, site: any site (literature study), lesion: several types, types named in the paper, dosed 82 weeks, study length 82 weeks) was 302 mg/kg/day and the TD50 (mouse, strain B6C3F1, females, oral dosing, site: lung, lesion: adenoma, dosed 82 weeks, study length 82 weeks) was 621 mg/kg/day. The TD50 (mouse, strain B6C3F1, males, in feed, site: any site (literature study), lesion: several types, types named in the paper, dosed 78 weeks, study length 90 weeks) was 256 mg/kg/day, the TD50 (mouse, strain B6C3F1, males, in feed, site: liver, lesion: hepatocellular adenoma + hepatocellular carcinoma + neoplastic nodule, dosed 78 weeks, study length 90 weeks) was 235 mg/kg/day and the TD50 (mouse, strain B6C3F1, males, in feed, site: liver, lesion: hepatocellular carcinoma, dosed 78 weeks, study length 90 weeks) was 235 mg/kg/day. For the same compound, the TD50 (mouse, strain B6C3F1, males, oral dosing, site: any site (literature study), lesion: several types, types named in the paper, dosed 82 weeks, study length 82 weeks) was 31.7 mg/kg/day, the TD50 (mouse, strain B6C3F1, males, oral dosing, site: liver, lesion: hepatoma, dosed 82 weeks, study length 82 weeks) was 43.8 mg/kg/day and the carcinogen call (rat, strain Carworth Farms, females, in feed, site: mammary gland, lesion: adenofibroma, dosed 104 weeks, study length 104 weeks) was “negative (inactive)”. For the same compound, the TD50 (rat, strain Osborne-Mendel, females, in feed, site: adrenal gland, lesion: cortical adenoma, dosed 78 weeks, study length 110 weeks) was 490 mg/kg/day (inactive), the TD50 (rat, strain Osborne-Mendel, males, in feed, site: adrenal gland, lesion: cortical adenoma, dosed 78 weeks, study length 110 weeks) was 186 mg/kg/day (inactive) and the TD50 (rat, strain Osborne-Mendel, males, in feed, site: liver, lesion: hepatocellular adenoma + hepatocellular carcinoma + neoplastic nodule, dosed 78 weeks, study length 110 weeks) was 1600 mg/kg/day.
`Nc1c(N=Nc2ccc([N+](=O)[O-])cc2)c(S(=O)(=O)O)cc2cc(S(=O)(=O)O)c(N=Nc3ccccc3)c(O)c12` was tested, and the carcinogen call (rat, strain Not specified, females, in feed, site: any site (literature study), lesion: several types, types named in the paper, dosed 64 weeks, study length 64 weeks) was “negative (inactive)”, the carcinogen call (rat, strain Not specified, females, in feed, site: liver, lesion: one or several types, types not named, dosed 64 weeks, study length 64 weeks) was “negative (inactive)” and the carcinogen call (rat, strain Not specified, males, in feed, site: any site (literature study), lesion: several types, types named in the paper, dosed 64 weeks, study length 64 weeks) was “negative (inactive)”. The carcinogen call (rat, strain Not specified, males, in feed, site: liver, lesion: one or several types, types not named, dosed 64 weeks, study length 64 weeks) was “negative (inactive)”.
